pIC50: −log10 of the molar value. Where a SMILES comes first, the peptide text is derived from it. [ ]: non-standard residue; d: D form. The star is where a group is joined. Nle(5,6-dioxo,6-NHMe) = CNC(=O)C(=O)CC[C@H](N)C(=O)O; Isopropoxycarbonyl = CC(C)OC(=O)*; Hyp = O=C(O)[C@@H]1C[C@@H](O)CN1; Tic = O=C(O)[C@@H]1Cc2ccccc2CN1; X8 = CC1(C)CC(CC(=O)*)C(=O)O1; Aib = CC(C)(N)C(=O)O
target: T1, recombinant human tissue transglutaminase (rhTG2) (Homo sapiens, UniProt P21980); experiment: Inhibition of rec. human tissue transglutaminase (fluorescence, Abz-APE(CAD-DNP)QEA-OH); format: biochemical; details: Table 2, TG2 inhibitors
T1 construct: purchased Zedira 1022 (so in the source); T022)
T1 sequence (P21980 1-687): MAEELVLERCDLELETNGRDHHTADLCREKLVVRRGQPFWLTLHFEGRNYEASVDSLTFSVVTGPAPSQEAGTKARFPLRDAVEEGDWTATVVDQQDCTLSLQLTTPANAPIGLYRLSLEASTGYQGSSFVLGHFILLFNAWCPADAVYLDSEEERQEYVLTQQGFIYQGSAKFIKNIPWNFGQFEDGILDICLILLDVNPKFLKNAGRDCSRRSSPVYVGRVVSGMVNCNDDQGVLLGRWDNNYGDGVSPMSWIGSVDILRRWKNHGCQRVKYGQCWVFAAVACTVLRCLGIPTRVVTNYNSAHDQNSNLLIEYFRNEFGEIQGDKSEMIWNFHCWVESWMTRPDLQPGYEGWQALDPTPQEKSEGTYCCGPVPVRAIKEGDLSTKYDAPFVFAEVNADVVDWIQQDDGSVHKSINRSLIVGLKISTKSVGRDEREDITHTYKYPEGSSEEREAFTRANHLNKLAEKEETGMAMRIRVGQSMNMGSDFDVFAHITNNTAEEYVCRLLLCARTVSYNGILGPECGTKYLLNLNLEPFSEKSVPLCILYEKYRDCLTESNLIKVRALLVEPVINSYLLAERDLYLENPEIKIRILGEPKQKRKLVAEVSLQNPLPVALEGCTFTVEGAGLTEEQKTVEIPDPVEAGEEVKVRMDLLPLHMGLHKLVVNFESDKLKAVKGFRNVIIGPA
Description: Method for Inhibition Studies of Rec. Human Tissue Transglutaminase (rhTG2)
250 μg lyophilized His-tagged recombinant human tissue transglutaminase (His6-rhTG2, Zedira product 1022) is reconstituted in H2O (volume depends on original volume before lyophilization) resulting in a buffer containing 10 mM Tris-HCl, 150 mM NaCl, 1 mM EDTA, 5 mM DTT, 189 mg/ml maltodextrin, pH=8.1. The rhTG2 stock solution is diluted in buffer (50 mM Tris-HCl, 7.5 mM CaCl2, 150 mM NaCl, pH=7.4) to give a working solution of 100 U/ml (based on the amine-incorporation activity measured using T036, described below).
A 10 mM inhibitor stock solution is prepared in DMSO, and from this stock solution a serial 1:2-fold dilution series is prepared, also in DMSO. Each of these initial dilutions is subsequently diluted 1:50-fold with buffer (50 mM Tris-HCl, 7.5 mM CaCl2, 150 mM NaCl, pH=7.4) to yield the final working dilutions containing 2% (v/v) DMSO. 15 μl of inhibitor working dilution are added per well of a 96 well microtiter plate. As control, 15 μl of a 2% (v/v) DMSO solution prepared using the buffer mentioned above are added per well.
600 μl of His6-rhTG2 working solution are added to 11.4 ml assay buffer (50 mM Iris-HCl, 7.5 mM CaCl2, 150 mM NaCl, 5 mM DTI, 13.4 mM glycine methylester, 50 μM Abz-APE(CAD-DNP)QEA-OH, (Zedira product A102; patent No.: EP 1781807B1), pH=7.4). From this master-mix solution, 285 μl are added per well containing the inhibitor. Increase in fluorescence is measured using λex=313 nm and λem=418 nm at 37° C. for 20 min. A slope of the increase in fluorescence between 10 and 20 min is calculated for determination of the IC50 value (inhibitor concentration at which 50% of the initial TG2 activity is blocked).
Analysis of enzymatic activity is performed by calculation of the slope of an increase in fluorescence intensity. IC50 values are calculated by plotting the enzymatic activity (as percentage from control containing 2% DMSO instead of inhibitor) against the inhibitor concentration. IC50 is defined as the inhibitor concentration blocking 50%) of initial enzyme activity.

| Structure (SMILES) | pIC50 |
| --- | --- |
| CCC(CC)CNC(=O)Cn1cccc(NC(=O)[C@H](CCCC(=O)C(=O)NC)NC(=O)c2cncn2C)c1=O [Compound E71, (S)—N1-(1-(2-(2-ethylbutylamino)-2-oxoethyl)-2-oxo-1,2-dihydropyridin-3-yl)-N7-methyl-2-(1-methyl-1H-imidazole-5-carboxamido)-6-oxoheptanediamide] | 5.22 |
| CNC(=O)C(=O)CCC[C@H](NC(=O)c1cncn1C)C(=O)Nc1ccc(S(=O)(=O)N2CCN(C)CC2)cc1 [Compound E72, (S)—N1-methyl-6-(1-methyl-1H-imidazole-5-carboxamido)-N7-(4-(4-methylpiperazin-1-ylsulfonyl)phenyl)-2-oxoheptanediamide] | 5.20 |
| CCC(CC)CNC(=O)Cn1cccc(NC(=O)[C@H](CCC(=O)C(C)=O)NC(=O)c2cncn2C)c1=O [Compound E74, (S)—N-(1-(1-(2-(2-ethylbutylamino)-2-oxoethyl)-2-oxo-1,2-dihydropyridin-3-ylamino)-1,5,6-trioxoheptan-2-yl)-1-methyl-1H-imidazole-5-carboxamide] | 6.90 |
| CCC(CC)CNC(=O)Cn1cccc(NC(=O)[C@H](CCC(=O)C(=O)OCCOC)NC(=O)c2cncn2C)c1=O [Compound E78, (S)-2-methoxyethyl 6-(1-(2-(2-ethylbutylamino)-2-oxoethyl)-2-oxo-1,2-dihydropyridin-3-ylamino)-5-(1-methyl-1H-imidazole-5-carboxamido)-2,6-dioxohexanoate] | 6.40 |
| CCC(CC)CNC(=O)Cn1cccc(NC(=O)[C@H](CCC(=O)C(=O)NOCC2CCCC2)NC(=O)c2cncn2C)c1=O [Compound E79, (S)—N1-(cyclopentylmethoxy)-N6-(1-(2-(2-ethylbutylamino)-2-oxoethyl)-2-oxo-1,2-di-hydropyridin-3-yl)-5-(1-methyl-1H-imidazole-5-carboxamido)-2-oxohexanediamide] | 6.28 |
| CCC(CC)CNC(=O)Cn1cccc(NC(=O)[C@H](CCC(=O)C(=O)c2cn(C)cn2)NC(=O)c2cncn2C)c1=O [Compound E81, (S)—N-(1-(1-(2-(2-ethylbutylamino)-2-oxoethyl)-2-oxo-1,2-dihydropyridin-3-ylamino)-6-(1-methyl-1H-imidazol-4-yl)-1,5,6-trioxohexan-2-yl)-1-methyl-1H-imidazole-5-carboxamide] | 6.13 |
| CNC(=O)C(=O)CC[C@H](NC(=O)OC(C)C)C(=O)N[C@@H](CCCNC(=N)N)C(=O)NC(C)(C)C(=O)N1C[C@H](O)C[C@H]1C(N)=O [Compound E84, isopropyl (S)-1-((S)-1-(1-((2S,4R)-2-carbamoyl-4-hydroxypyrrolidin-1-yl)-2-methyl-1-oxopropan-2-ylamino)-5-guanidino-1-oxopentan-2-ylamino)-6-(methylamino)-1,5,6-trioxohexan-2-ylcarbamate] (Isopropoxycarbonyl-[Nle(5,6-dioxo,6-NHMe)]R[Aib][Hyp]-NH2) | 6.02 |

The remaining compounds from weak to strong by pIC50, led by results:

| pIC50 | Structure (SMILES) |
| --- | --- |
| 5.20 | CCC(CC)CNC(=O)Cn1cccc(NC(=O)[C@H](CCCCC(=O)C(=O)NC)NC(=O)c2cncn2C)c1=O [Compound E73, (S)—N1-(1-(2-(2-ethylbutylamino)-2-oxoethyl)-2-oxo-1,2-dihydropyridin-3-yl)-N8-methyl-2-(1-methyl-1H-imidazole-5-carboxamido)-7-oxooctanediamide] |
| 5.70 | CNC(=O)C(=O)CC[C@H](NC(=O)Cc1cc(C)nn1C)C(=O)Nc1cccc(C(=O)N[C@@H](Cc2ccc(-c3ccccc3)cc2)C(=O)N2C[C@H](Oc3ccccc3)C[C@H]2C(N)=O)c1 [Compound E83, (S)—N1-(3-((S)-3-(biphenyl-4-yl)-1-((2S,4R)-2-carbamoyl-4-phenoxypyrrolidin-1-yl)-1-oxopropan-2-ylcarbamoyl)phenyl)-2-(2-(1,3-dimethyl-1H-pyrazol-5-yl)acetamido)-N6-methyl-5-oxohexanediamide] |
| 5.87 | CNC(=O)C(=O)CC[C@H](NC(=O)CC1CC(C)(C)OC1=O)C(=O)N[C@@H](Cc1c[nH]cn1)C(=O)N[C@@H](Cc1ccc(O)cc1)C(=O)N1Cc2ccccc2C[C@H]1C(N)=O (stereo partly drawn) [Compound E82, (2S)-N1-((S)-1-((S)-1-((S)-3-carbamoyl-3,4-dihydroisoquinolin-2(1H)-yl)-3-(4-hydroxy-phenyl)-1-oxopropan-2-ylamino)-3-(1H-imidazol-4-yl)-1-oxopropan-2-yl)-2-(2-(5,5-dimethyl-2-oxotetrahydrofuran-3-yl)acetamido)-N6-methyl-5-oxohexanediamide] (X8-[Nle(5,6-dioxo,6-NHMe)]HY[Tic]-NH2) |
| 6.26 | CCC(CC)CNC(=O)Cn1cccc(NC(=O)[C@H](CCC(=O)C(=O)c2ccccc2)NC(=O)c2cncn2C)c1=O [Compound E76, (S)—N-(1-(1-(2-(2-ethylbutylamino)-2-oxoethyl)-2-oxo-1,2-dihydropyridin-3-ylamino)-1,5,6-trioxo-6-phenylhexan-2-yl)-1-methyl-1H-imidazole-5-carboxamide] |
| 6.56 | CCC(CC)CNC(=O)Cn1cccc(NC(=O)[C@H](CCC(=O)C(=O)NC)NC(=O)Nc2ccccc2)c1=O [Compound E69, (S)—N1-(1-(2-(2-ethylbutylamino)-2-oxoethyl)-2-oxo-1,2-dihydropyridin-3-yl)-N6-methyl-5-oxo-2-(3-phenylureido)hexanediamide] |
| 6.58 | CCC(CC)CNC(=O)Cn1cccc(NC(=O)[C@H](CCC(=O)C(=O)NC)NC(=S)Nc2ccccc2)c1=O [Compound E70, (S)—N1-(1-(2-(2-ethylbutylamino)-2-oxoethyl)-2-oxo-1,2-dihydropyridin-3-yl)-N6-methyl-5-oxo-2-(3-phenylthioureido)hexanediamide] |
| 6.70 | CCC(CC)CNC(=O)Cn1cccc(NC(=O)[C@H](CCC(=O)C(=O)OC)NC(=O)c2cncn2C)c1=O [Compound E77, (S)-methyl 6-(1-(2-(2-ethylbutylamino)-2-oxoethyl)-2-oxo-1,2-dihydropyridin-3-ylamino)-5-(1-methyl-1H-imidazole-5-carboxamido)-2,6-dioxohexanoate] |
| 6.87 | CCC(CC)CNC(=O)Cn1cccc(NC(=O)[C@H](CCC(=O)C(=O)C2CC2)NC(=O)c2cncn2C)c1=O [Compound E75, (S)—N-(6-cyclopropyl-1-(1-(2-(2-ethylbutylamino)-2-oxoethyl)-2-oxo-1,2-dihydropyridin-3-ylamino)-1,5,6-trioxohexan-2-yl)-1-methyl-1H-imidazole-5-carboxamide] |
| 6.87 | CCC(CC)CNC(=O)Cn1cccc(NC(=O)[C@H](CCC(=O)C(=O)CC(C)C)NC(=O)c2cncn2C)c1=O [Compound E80, (S)—N-(1-(1-(2-(2-ethylbutylamino)-2-oxoethyl)-2-oxo-1,2-dihydropyridin-3-ylamino)-8-methyl-1,5,6-trioxononan-2-yl)-1-methyl-1H-imidazole-5-carboxamide] |

From patent publication US11072634B2, “Inhibitors of transglutaminases” (Zedira GmbH, priority 2016, dated 2021)
